How the values were obtained:
[1] = Inhibition of V-ATPase-driven proton transport in membrane vesicles derived from chicken osteoclasts (cOc).
[2] = Inhibition of V-ATPase-driven proton transport in membrane vesicles derived from bovine chromaffin granules (bCG).
[3] = Inhibition of V-ATPase-driven proton transport in membrane vesicles derived from chicken osteoclasts (cOc)
[4] = Inhibition of V-ATPase-driven proton transport in membrane vesicles derived from bovine chromaffin granules (bCG)

Compound CO/C1=C\C(C)=C\[C@@H](C)C(=O)[C@@H](C)C/C(C)=C/C=C/[C@H](OC)[C@@H]([C@@H](C)[C@@H](O)[C@H](C)C(=O)O)OC1=O [(2S,3R,4S)-4-((4E,6E,12E,14Z)-(2R,3S,9S,11R)-3,15-Dimethoxy-7,9,11,13-tetramethyl-10,16-dioxo-oxacyclohexadeca-4,6,12,14-tetraen-2-yl)-3-hydroxy-2-methyl-pentanoic acid] has an IC50 [1] of over 10 µM and an IC50 [2] of over 10 µM.

In the case of COC(=O)[C@@H](C)[C@H](O)[C@H](C)[C@H]1OC(=O)/C(OC)=C/C(C)=C/[C@@H](C)C(=O)[C@@H](C)C/C(C)=C/C=C/[C@@H]1OC [(2S,3R,4S)-4-((4E,6E,12E,14Z)-(2R,3S,9S,11R)-3,15-Dimethoxy-7,9,11,13-tetramethyl-10,16-dioxo-oxacyclohexadeca-4,6,12,14-tetraen-2-yl)-3-hydroxy-2-methyl-pentanoic acid methyl ester], the IC50 [1] is reported as over 10 µM and the IC50 [2] is reported as over 10 µM.

In the case of CO/C1=C\C(C)=C\[C@@H](C)C(=O)[C@@H](C)C/C(C)=C/C=C/[C@H](OC)[C@@H]([C@@H](C)[C@@H](O)[C@H](C)[C@@]2(O)C[C@@H](C(=O)Oc3ccccc3)[C@H](C)[C@@H](C(C)C)O2)OC1=O [2-[3-(3,15-Dimethoxy-7,9,11,13-tetramethyl-10,16-dioxo-oxacyclohexadeca-4,6,12,14-tetraen-2-yl)-2-hydroxy-1-methyl-butyl]-2-hydroxy-6-isopropyl-5-methyl-tetrahydro-pyran-4-carboxylic acid phenyl ester], the IC50 [3] is reported as over 10 µM and the IC50 [4] is reported as over 10 µM.

With CO/C1=C\C(C)=C\[C@@H](C)[C@@H](O)[C@@H](C)C/C(C)=C/C=C/[C@H](OC)[C@@H]([C@@H](C)[C@@H](O)[C@H](C)C(=O)O)OC1=O [(2S,3R,4S)-3-Hydroxy-4-((4E,6E,12E,14Z)-(2R,3S,9S,10S,11R)-10-hydroxy-3,15-dimethoxy-7,9,11,13-tetramethyl-16-oxo-oxacyclohexadeca-4,6,12,14-tetraen-2-yl)-2-methyl-pentanoic acid] the IC50 [1] was over 10 µM and the IC50 [2] was over 10 µM.

— BindingDB's records for doi:10.1021/jm9707838 (Smithkline Beecham, 1998)
